Where two headings read alike, the source gives them in different places.
Experiments:
Format in all cases: cell-based
[1] = test system: Corynebacterium pseudodiphtheriae; experiment: Antibacterial assay zone of inhibition Cp
[2] = test system: Mycobacterium smegmatis; experiment: Antibacterial assay zone of inhibition Ms
[3] = test system: Corynebacterium xerosis; experiment: Antibacterial assay zone of inhibition Cx
[4] = test system: Escherichia coli; experiment: Antibacterial assay zone of inhibition Ec
[5] = test system: Bacillus cereus; experiment: Antibacterial assay zone of inhibition Bc
[6] = test system: Micrococcus luteus; experiment: Antibacterial assay zone of inhibition Ml
[7] = test system: Pseudomonas aeruginosa; experiment: Antibacterial assay zone of inhibition Pa
[8] = test system: Burkholderia thailandensis
[9] = test system: Klebsiella pneumonia; experiment: Antibacterial assay zone of inhibition Kp

SMILES | Antibacterial Cp zone of inhibition ([1]; 0.1 mM) [millimeters] | Antibacterial Cp zone of inhibition ([1]; 0.5 mM) [millimeters] | Antibacterial Cp zone of inhibition ([1]; 1 mM) [millimeters] | Antibacterial Ms zone of inhibition ([2]; 0.1 mM) [millimeters] | Antibacterial Ms zone of inhibition ([2]; 0.5 mM) [millimeters] | Antibacterial Ms zone of inhibition ([2]; 1 mM) [millimeters] | Antibacterial Cx zone of inhibition ([3]; 0.1 mM) [millimeters] | Antibacterial Cx zone of inhibition ([3]; 0.5 mM) [millimeters] | Antibacterial Cx zone of inhibition ([3]; 1 mM) [millimeters] | Antibacterial Ec zone of inhibition ([4]; 0.1 mM) [millimeters] | Antibacterial Ec zone of inhibition ([4]; 0.5 mM) [millimeters] | Antibacterial Ec zone of inhibition ([4]; 1 mM) [millimeters] | Antibacterial Bc zone of inhibition ([5]; 0.1 mM) [millimeters] | Antibacterial Bc zone of inhibition ([5]; 0.5 mM) [millimeters] | Antibacterial Bc zone of inhibition ([5]; 1 mM) [millimeters] | Antibacterial Ml zone of inhibition ([6]; 0.1 mM) [millimeters] | Antibacterial Ml zone of inhibition ([6]; 0.5 mM) [millimeters] | Antibacterial Ml zone of inhibition ([6]; 1 mM) [millimeters] | Antibacterial Pa zone of inhibition ([7]; 0.1 mM) [millimeters] | Antibacterial Pa zone of inhibition ([7]; 0.5 mM) [millimeters] | other results
Clc1ccc(OCc2nnc(-c3nc4ccccc4s3)o2)cc1Cl [HGN-834] | 0 | 0 | 0 | 0 | 0 | 0 | 0 | 0 | 0 | 0 | 0 | 0 | 0 | 11 | 18 | 0 | 0 | 0 | 0 | 0 | Antibacterial Pa zone of inhibition ([7]; 1 mM): 0 millimeters; Antibacterial Bt zone of inhibition ([8]; 0.1 mM): 0 millimeters; Antibacterial Bt zone of inhibition ([8]; 0.5 mM): 0 millimeters; Antibacterial Bt zone of inhibition ([8]; 1 mM): 0 millimeters; Antibacterial Kp zone of inhibition ([9]; 0.1 mM): 0 millimeters; Antibacterial Kp zone of inhibition ([9]; 0.5 mM): 0 millimeters; Antibacterial Kp zone of inhibition ([9]; 1 mM): 0 millimeters
Clc1ccc(OCc2nnc(-c3nc4ccccc4s3)o2)cc1 [HGN-826] | 0 | 0 | 0 | 0 | 13 | 20 | 0 | 0 | 0 | 0 | 0 | 0 | 0 | 0 | 12 | 0 | 0 | 0 | 0 | 0 | Antibacterial Pa zone of inhibition ([7]; 1 mM): 0 millimeters; Antibacterial Bt zone of inhibition ([8]; 0.1 mM): 0 millimeters; Antibacterial Bt zone of inhibition ([8]; 0.5 mM): 0 millimeters; Antibacterial Bt zone of inhibition ([8]; 1 mM): 0 millimeters; Antibacterial Kp zone of inhibition ([9]; 0.1 mM): 0 millimeters; Antibacterial Kp zone of inhibition ([9]; 0.5 mM): 0 millimeters; Antibacterial Kp zone of inhibition ([9]; 1 mM): 0 millimeters
COc1ccc(OCc2nnc(-c3nc4ccccc4s3)o2)cc1 [HGN-833] | 0 | 0 | 14 | 0 | 0 | 0 | 0 | 0 | 15 | 0 | 0 | 0 | 0 | 10 | 15 | 0 | 0 | 13 | 0 | 0 | Antibacterial Pa zone of inhibition ([7]; 1 mM): 0 millimeters; Antibacterial Bt zone of inhibition ([8]; 0.1 mM): 0 12 17 millimeters; Antibacterial Bt zone of inhibition ([8]; 0.5 mM): 0 12 17 millimeters; Antibacterial Bt zone of inhibition ([8]; 1 mM): 0 12 17 millimeters; Antibacterial Kp zone of inhibition ([9]; 0.1 mM): 0 millimeters; Antibacterial Kp zone of inhibition ([9]; 0.5 mM): 0 millimeters; Antibacterial Kp zone of inhibition ([9]; 1 mM): 0 millimeters
Clc1cccc(OCc2nnc(-c3nc4ccccc4s3)o2)c1 [HGN-835] | 0 | 0 | 0 | 0 | 0 | 0 | 0 | 0 | 0 | 0 | 0 | 0 | 0 | 14 | 20 | 0 | 0 | 14 | 0 | 0 | Antibacterial Pa zone of inhibition ([7]; 1 mM): 0 millimeters; Antibacterial Bt zone of inhibition ([8]; 0.1 mM): 0 12.5 18 millimeters; Antibacterial Bt zone of inhibition ([8]; 0.5 mM): 0 12.5 18 millimeters; Antibacterial Bt zone of inhibition ([8]; 1 mM): 0 12.5 18 millimeters; Antibacterial Kp zone of inhibition ([9]; 0.1 mM): 0 millimeters; Antibacterial Kp zone of inhibition ([9]; 0.5 mM): 14 millimeters; Antibacterial Kp zone of inhibition ([9]; 1 mM): 18 millimeters
Clc1ccc(CCc2nnc(-c3nc4ccccc4s3)o2)c(Cl)c1 [HGN-824] | 0 | 0 | 10 | 0 | 12 | 18 | 0 | 0 | 0 | 0 | 0 | 0 | 0 | 0 | 0 | 0 | 0 | 0 | 0 | 0 | Antibacterial Pa zone of inhibition ([7]; 1 mM): 0 millimeters; Antibacterial Bt zone of inhibition ([8]; 0.1 mM): 0 millimeters; Antibacterial Bt zone of inhibition ([8]; 0.5 mM): 0 millimeters; Antibacterial Bt zone of inhibition ([8]; 1 mM): 0 millimeters; Antibacterial Kp zone of inhibition ([9]; 0.1 mM): 0 millimeters; Antibacterial Kp zone of inhibition ([9]; 0.5 mM): 0 millimeters; Antibacterial Kp zone of inhibition ([9]; 1 mM): 0 millimeters
